From patent publication US20070203066A1, “Compositions and methods for inhibiting cellular proliferation” (priority 2005, published 2007)
pIC50: −log10 of the molar value. Non-standard residues stand in square brackets, D forms with d. Primed or numbered codes have the meaning given here. No end group written: not given here. Ida = iminodiacetic acid linker, its two carboxyls bind the Lys side-chain amines of two peptides, giving a homodimer; Ida(3) = iminodiacetic acid linker, Lys side-chain amines bound to its two carboxyl groups; Ida(4) = iminodiacetic acid linker (dimerization linker bound to lysine side chain); Ida″ = iminodiacetic acid linker bound to the Lys side-chain amine, forming a dimer

The substances below were run on HUVECs. Settings: HUVEC proliferation, bFGF at 10 ng/ml or VEGF at 5 ng/ml, 48 hours, BrdU incorporation; read-out: IC50 on HUVECs.
Format: cell-based
Procedure: HUVECs were routinely cultured to near confluency in EGM media (Clontech, Mountain View, California). The cells were trypsinized and plated in a 96-well plate at 5,000 cells per well per 100 μl EBM supplemented with 2% FCS and antibiotics. The cells were allowed to adhere to the plate for at least 12 hours. Then, bFGF at 10 ng/ml or VEGF at 5 ng/ml, and various concentrations of peptide, were added to the wells. The cells were cultured for 48 hours at 37 ° C. in a 5% CO2 atmosphere. Cell proliferation was determined using a bromo-deoxyuridine (BrdU) incorporation method as described by the manufacturer. Inhibition of cell proliferation was assessed by BrdU incorporation.

Substance	pIC50
209 (Ac-RRRRAQAVRIIF; also: dimer: Phe C-termini joined via Lys linker) [compound 209]	> 5.00
NKRKKQRVKIIFVKVFIIKVRQKKRKN [compound 151]	> 5.00
470 (Ac-PRRRDQAVAIYFK(Ida(3)); not fully specified (C-terminus); also: homodimer via Ida linker on Lys13 side chain) [compound 470]	< 4.52
KTKRKRKKQRVKIIFV [compound 85]	> 5.00
212 (Ac-AARRRQRVAIIF; also: dimer: Phe C-termini joined via Lys linker) [compound 212]	< 4.52
KTKRKRKKQRVKIAY [compound 36]	< 4.52
346 (Ac-ARRRRQRVAIYEK-NH2; not fully specified (residue 13); also: homodimer of residues 1-13 via Ida linker on Lys13 side chain) [compound 346]	< 4.52
423 (Ac-ARRRRQRVAIKFV; not fully specified (residue 11); also: homodimer of residues 1-13 via Ida linker on K11 side chain) [compound 423]	> 5.00
247 (Ac-RRRRHQRVHIIF; also: homodimer: C-termini of two chains bound to the two amines of a Lys linker) [compound 247]	> 5.00
411 (Ac-TRRRRQAVAIYFK; not fully specified (residue 13, C-terminus); also: homodimer via Ida linker on Lys side chains, linker at 13 via Ida, other end not in the chain) [compound 411]	> 5.00
507 (Ac-RGDSPGGARRRRQRVAIYFK; also: homodimer via Ida linker on Lys20 side chain) [compound 507]	> 5.00
KTKRKRKAQRVKIIFVQNM [compound 116]	> 5.00
476 (Ac-PRRRPQAVAIYFK(Ida(3)); not fully specified (C-terminus); also: homodimer via Ida linker on Lys13 side chain) [compound 476]	> 5.00
KTKRKRKKQRVKRAYEEIF [compound 136]	< 4.52
414 (Ac-YRRRRQAVAIYFK; not fully specified (residue 13, C-terminus); also: homodimer via Ida linker on Lys side chains, linker at 13 via Ida, other end not in the chain) [compound 414]	> 5.00
448 (Ac-RRRRRQAAAAAAK(Ida(4)); not fully specified (C-terminus); also: homodimer via Ida linker at K13) [compound 448]	< 4.52
485 (Ac-ARRRPQAVAIKF; not fully specified (residue 11); also: homodimer: Lys11 side chain bound to Ida linker (Boc on Ida N)) [compound 485]	> 5.00
220 (Ac-RRRARQAVAIIF; also: dimer: Phe C-termini joined via Lys linker) [compound 220]	> 5.00
RKRKKQRVKIAYEEIFVKNM [compound 4]	4.52 to 5.00

Substance	pIC50
KTKRKRKKQRVKIAYEEIFVK [compound 14]	> 5.00
367 (Ac-ARRRRQRVAPYFK-NH2; not fully specified (residue 13); also: homodimer of residues 1-13 via Ida linker on K13 side chain) [compound 367]	< 4.52
450 (Ac-ARRRRQAVAILFK-NH2; not fully specified (residue 13); also: homodimer via Ida linker at K13) [compound 450]	> 5.00
284 (Ac-RRRRHQHVAIYFK-NH2; not fully specified (residue 13); also: homodimer: Lys13 side chain bound to Ida linker) [compound 284]	> 5.00
489 (Ac-PRRRPQAVAIK(Ida″)F; also: homodimer via Ida linker on Lys11 side chain) [compound 489]	> 5.00
207 (Ac-RRRARQAVRIIF; also: dimer: Phe C-termini joined via Lys linker) [compound 207]	> 5.00
434 (Ac-RRRRFQAVAIYFK(Ida(4)); not fully specified (C-terminus); also: homodimer via Ida linker at K13) [compound 434]	> 5.00
468 (Ac-ARRIRQAVAIYFK(Ida(3)); not fully specified (C-terminus); also: homodimer via Ida linker on Lys13 side chain) [compound 468]	< 4.52
282 (Ac-RRRRAQHVAIYFK-NH2; not fully specified (residue 13); also: homodimer: Lys13 side chain bound to Ida linker) [compound 282]	> 5.00
176 (Ac-RRRARQRVRIIF; also: homodimer via C-terminal Lys linker) [compound 176]	> 5.00
KTKRKRKAARVKIAYEEIFVQNM [compound 53]	< 4.52
382 (Ac-ARRRRQRVAIVFK-NH2; not fully specified (residue 13); also: homodimer via Ida linker on Lys13 side chain, Ida amine Boc) [compound 382]	> 5.00
357 (Ac-RRRRRQAVRIQIQFK; not fully specified) [compound 357]	4.52 to 5.00
442 (Ac-RRRRVQAVAIYFK(Ida(4)); not fully specified (C-terminus); also: homodimer via Ida linker at K13) [compound 442]	> 5.00
429 (Ac-ARRRRQAVAIK(Ida(4))FI; also: homodimer via Ida linker at K11) [compound 429]	> 5.00
218 (Ac-RARRRQAVAIIF; also: dimer: Phe C-termini joined via Lys linker) [compound 218]	> 5.00
471 (Ac-PRRRFQAVAIYFK(Ida(3)); not fully specified (C-terminus); also: homodimer via Ida linker on Lys13 side chain) [compound 471]	< 4.52
KTKRKRKKQRVKIIFVQAM [compound 106]	> 5.00
277 (XRRRRQRVHIYFK; not fully specified; Xaa = Acylated Histidine; The side chain of Lysine at position 13 is covalently bound to an Ida linker forming a homodimer of residues 1 through 13.) [compound 277]	> 5.00

Substance	pIC50
TKRKRKKQRVKIAYEEIF [compound 65]	< 4.52
270 (Ac-RRRRRQAVAINFK-NH2; not fully specified (residue 13); also: homodimer: Lys13 side chain bound to Ida linker) [compound 270]	> 5.00
490 (Ac-PRRRRQSVAIK(Ida″)F; also: homodimer via Ida linker on Lys11 side chain) [compound 490]	4.52 to 5.00
503 (Ac-PRRLRQAVAIYFK; not fully specified (residue 13, C-terminus); also: homodimer via Ida linker on Lys13 side chain) [compound 503]	> 5.00
509 (Ac-ARRRRARVAIYFK; not fully specified (C-terminus); also: homodimer via Ida linker at Lys13 side chain) [compound 509]	> 5.00
KTKRKRKKQRVKIIFVANM [compound 107]	> 5.00
355 (Ac-ARRRR[dQ]RVAIIFK; not fully specified) [compound 355]	< 4.52
223 (Ac-ARRRRQRVAIGFK; also: homodimer via Ida linker on side chain of Lys13) [compound 223]	< 4.52
KTKRKRKKQRVKIAYEEIFVQAA [compound 45]	4.52 to 5.00
261 (Ac-ARR[dR]RQRVAIIFK-NH2; not fully specified (residue 13); also: homodimer via Ida linker on Lys13 side chains) [compound 261]	> 5.00
484 (Ac-ARRRNQAVAIKF; not fully specified (residue 11); also: homodimer: Lys11 side chain bound to Ida linker (Boc on Ida N)) [compound 484]	> 5.00
321 (XRRRRQHVAIYFK; Xaa = Acylated Histidine; The side chain of Lysine at position 13 is covalently bound to an Ida linker forming a homodimer of residues 1 through 13.) [compound 321]	> 5.00
314 (Ac-RARRRQAVAIPFK(Ida)-NH2; also: homodimer via Ida linker on Lys13 side chain) [compound 314]	< 4.52
236 (Ac-RHRHRQRVRIIF; also: dimer via C-terminal Phe to Lys linker) [compound 236]	> 5.00
KTKRKAKKQRVKIIFVQNM [compound 118]	> 5.00
242 (Ac-RRHRRQHVRIIF; also: dimer via C-terminal Phe to Lys linker) [compound 242]	> 5.00
169 (Ac-KRRRRRQRVRIIF; also: homodimer via Ida linker on Lys1 side chains) [compound 169]	> 5.00
369 (Ac-ARRRRQRVAQYFK-NH2; not fully specified (residue 13); also: homodimer via Ida linker on Lys13 side chain, Boc on Ida amine) [compound 369]	< 4.52
